Measured values: patent publication US7501442B2, “Biphenyl compounds useful as muscarinic receptor antagonists” (Theravance, Inc., priority 2004, dated 2009)

Key:
hM2 receptor = molecular target: T1, hM2 receptor (Homo sapiens, UniProt P08172); assay: Blockade of agonist-mediated inhibition of cAMP accumulation; format: cell-based; conditions: CHO-K1 cells expressing the hM2 receptor; read-out: Ki value for blockade of oxotremorine-inhibition of forskolin-mediated cAMP accumulation
T1 construct: expressed in transfected cells; host or cells: CHO-K1 cells
T1 sequence (P08172 1-466): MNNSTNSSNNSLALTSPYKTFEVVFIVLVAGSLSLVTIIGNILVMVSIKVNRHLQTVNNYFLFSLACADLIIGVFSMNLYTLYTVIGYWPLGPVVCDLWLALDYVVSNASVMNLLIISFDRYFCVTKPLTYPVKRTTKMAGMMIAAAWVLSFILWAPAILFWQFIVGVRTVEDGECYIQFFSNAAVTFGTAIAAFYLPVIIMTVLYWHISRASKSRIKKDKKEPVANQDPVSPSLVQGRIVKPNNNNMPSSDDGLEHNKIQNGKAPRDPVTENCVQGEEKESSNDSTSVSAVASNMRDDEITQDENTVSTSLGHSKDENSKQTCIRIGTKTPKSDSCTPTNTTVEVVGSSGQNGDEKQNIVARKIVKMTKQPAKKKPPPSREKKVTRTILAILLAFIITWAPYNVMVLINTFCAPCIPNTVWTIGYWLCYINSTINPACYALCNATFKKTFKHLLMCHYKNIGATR
Description: A. Blockade of Agonist-Mediated Inhibition of cAMP Accumulation
In this assay, the functional potency of a test compound was determined by measuring the ability of the test compound to block oxotremorine-inhibition of forskolin-mediated cAMP accumulation in CHO-K1 cells expressing the hM2 receptor.
cAMP assays were performed in a radioimmunoassay format using the Flashplate Adenylyl Cyclase Activation Assay System with ^125I-cAMP (NEN SMP004B, PerkinElmer Life Sciences Inc., Boston, Mass.), according to the manufacturer's instructions.
Cells were rinsed once with dPBS and lifted with Trypsin-EDTA solution (0.05% trypsin/0.53 mM EDTA) as described in the Cell Culture and Membrane Preparation section above. […] The cell pellet was then re-suspended in 10 mL dPBS, and the cells were counted with a Coulter Z1 Dual Particle Counter (Beckman Coulter, Fullerton, Calif.). […]
Reactions were incubated for 10 minutes at 37° C. and stopped by addition of 100 μL ice-cold detection buffer. Plates were sealed, incubated overnight at room temperature and counted the next morning on a PerkinElmer TopCount liquid scintillation counter (PerkinElmer Inc., Wellesley, Mass.). The amount of cAMP produced (pmol/well) was calculated based on the counts observed for the samples and cAMP standards, as described in the manufacturer's user manual. […]

[1] = system: ACh-induced bronchoconstriction; assay: Duration of bronchoprotection in guinea pig model of acetylcholine-induced bronchoconstriction; format: in vivo; conditions: inhalation, 1.5 hours post-dose
Description: Determination of Duration of Bronchoprotection in Guinea Pig Model of Acetylcholine-Induced Bronchoconstriction
Groups of six male guinea pigs (Duncan-Hartley (HsdPoc:DH) Harlan, Madison, Wis.) weighing between 250 and 350 g were individually identified by cage cards. Throughout the study animals were allowed access to food and water ad libitum.
Test compounds were administered via inhalation over 10 minutes in a whole-body exposure dosing chamber (R&S Molds, San Carlos, Calif.). The dosing chambers were arranged so that an aerosol was simultaneously delivered to 6 individual chambers from a central manifold. Guinea pigs were exposed to an aerosol of a test compound or vehicle (WFI). […] This was measured gravimetrically by comparing pre- and post-nebulization weights of the filled nebulizer.
The bronchoprotective effects of test compounds administered via inhalation were evaluated using whole body plethysmography at 1.5, 24, 48 and 72 hours post-dose.
Forty-five minutes prior to the start of the pulmonary evaluation, each guinea pig was anesthetized with an intramuscular injection of ketamine (43.75 mg/kg), xylazine (3.50 mg/kg) and acepromazine (1.05 mg/kg). […] The depth of anesthesia was monitored and adjusted if the animal responded to pinching of its paw or if the respiration rate was greater than 100 breaths/minute. […]

- Ki (hM2 receptor): < 0.01 µM
Compound: CN(CCN1CCC(OC(=O)Nc2ccccc2-c2ccccc2)CC1)C(=O)CCCCCNCCc1ccc(O)cc1 [Example 1, Biphenyl-2-ylcarbamic Acid 1-[2-({6-[2-(4-Hydroxyphenyl)ethylamino]hexanoyl}methylamino)ethyl]piperidin-4-yl Ester]
- PD2(50) for ACh-induced bronchoconstriction [1]: less than 200 μg/mL
